Results taken from patent US8058395B2, “Chimeric protein comprising a green fluorescent ptotein fused to a transcription factor” (The United States of America as represented by the …, priority 1995, dated 2011).

What was measured:
GR = details: cited from earlier work
[1] = system: GFP-ER (human estrogen receptor); experiment: Ligand effect on nuclear localization of GFP-ER in MCF7 cells; type: cell-based; details: GFP-ER already partially activated by medium
Description: GFP-fusion plasmids of the invention are tested for expression and subcellular localization by transfection into several mammalian cells. For example, GFP-GR plasmids were analyzed in C127 (mouse) cells, HeLa (human cervical cancer) cells, and MCF7 (human breast adenocarcinoma) cells (ATCC accession number HTB22). GFP-ER plasmids were analyzed in 1471.1 cells, C127 (mouse) cells, MCF7 (human breast adenocarcinoma) cells, and MDA-MB-231 (human breast adenocarcinoma) cells (ATCC accession number HTB 26). Localization is observed in the absence of added hormone in either-5% or 10% charcoal-stripped fetal calf serum. Cells having GFP-fusion plasmids are then treated with a selected ligand, and subcellular localization and quantitative observations are made.
Assay for Ligand Effects: GFP-fusion plasmids of the invention are assayed for effects of a selected ligand on subcellular localization by transfection into selected cells. C127 (mouse) cells, HeLa (human cervical cancer) cells, and MCF7 (human breast adenocarcinoma) cells (ATCC accession number HTB22) were each transfected with GFP-GR plasmids and with GFP-ER plasmids. Localization is first observed in the absence of added hormone in either 5% or 10% charcoal-stripped fetal calf serum. Cells having GFP-fusion plasmids are then treated with a selected ligand, and subcellular localization and quantitative observations are made. […]

SMILES: C[C@]12CC[C@@H]3c4ccc(O)cc4CC[C@H]3[C@@H]1CC[C@@H]2O [17-β-estradiol]
- affinity for GR (GR): no affinity
- nuclear GFP-ER signal after addition of agonist [1]: further concentration of nuclear signals on nuclear structures
